Reference: patent US20100267561A1, “HERBICIDAL PYRIDAZINONE DERIVATIVES” (priority 2007, published 2010)

Key:
Type in all cases: in vivo
rice (Oryza sativa) = assay: Test B flooded paddy test plant response
Method in brief: (§1)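 Compounds were added directly to paddy water over 2-leaf-stage plants in pots flooded 3 cm above soil, water depth maintained. Visual injury scored against controls after 13 to 15 days in greenhouse, 0 (none) to 100 (complete control); dash indicates no result.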

[1] = tested on: barnyardgrass (Echinochloa crus-galli); assay: Test B flooded paddy test plant response
Method in brief: as §1

[2] = tested on: umbrella sedge (Cyperus difformis); assay: Test B flooded paddy test plant response
Method in brief: as §1

[3] = tested on: ducksalad (Heteranthera limosa); assay: Test B flooded paddy test plant response
Method in brief: as §1

[4] = tested on: common (oilseed) sunflower (Helianthus annuus); assay: Test B pre-/postemergence plant response; conditions: Preemergence
Method in brief: (§2)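 Seeds were sown and sprayed preemergence, while plants at 2 to 18 cm (1- to 4-leaf stage) got postemergence sprays. Compounds were formulated in a non-phytotoxic solvent mixture with surfactant. After 13 to 15 days in a greenhouse, injury was rated visually against untreated controls, 0 (no effect) to 100 (complete control).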

[5] = tested on: velvetleaf (Abutilon theophrasti); assay: Test B pre-/postemergence plant response; conditions: for Velvetleaf plant response rating: 8 g ai/ha
Method in brief: as §2

[6] = tested on: surinam grass (Brachiaria decumbens); assay: Test B pre-/postemergence plant response; conditions: for Surinam Grass plant response rating: 8 g ai/ha
Method in brief: as §2

[7] = tested on: morningglory (Ipomoea coccinea); assay: Test B pre-/postemergence plant response; conditions: for Morningglory plant response rating: 8 g ai/ha
Method in brief: as §2

wild oat (Avena fatua) = assay: Test B pre-/postemergence plant response; conditions: for Oat, Wild plant response rating: 8 g ai/ha
Method in brief: as §2

[8] = tested on: green foxtail (Setaria viridis); assay: Test B pre-/postemergence plant response; conditions: for Foxtail, Green plant response rating: 8 g ai/ha
Method in brief: as §2

[9] = tested on: downy bromegrass (Bromus tectorum); assay: Test B pre-/postemergence plant response; conditions: for Bromegrass, Downy plant response rating: 8 g ai/ha
Method in brief: as §2

[10] = tested on: wheat (Triticum aestivum); assay: Test B pre-/postemergence plant response; conditions: for Wheat plant response rating: 8 g ai/ha
Method in brief: as §2

corn (Zea mays) = assay: Test B pre-/postemergence plant response; conditions: for Corn plant response rating: 8 g ai/ha
Method in brief: as §2

[11] = tested on: large crabgrass (Digitaria sanguinalis); assay: Test B pre-/postemergence plant response; conditions: for Crabgrass, Large plant response rating: 8 g ai/ha
Method in brief: as §2

[12] = Flood (flooded paddy test), 62 g ai/ha, scale 0 to 100, 0 no effect, 100 complete control
[13] = Flood (flooded paddy test), 125 g ai/ha, scale 0 to 100, 0 no effect, 100 complete control
[14] = Flood (flooded paddy test), 250 g ai/ha, scale 0 to 100, 0 no effect, 100 complete control
[15] = Flood, 31 g ai/ha, scale 0 to 100
[16] = Postemergence, 16 g ai/ha, scale 0 to 100
[17] = Postemergence, 62 g ai/ha, scale 0 to 100, 0 no effect, 100 complete control
[18] = Preemergence, 16 g ai/ha, scale 0 to 100 (0 no effect, 100 complete control)
[19] = Preemergence, 31 g ai/ha, 0 to 100 scale, 0 no effect, 100 complete control
[20] = Preemergence, 62 g ai/ha, scale 0 to 100
[21] = Postemergence, 31 g ai/ha, scale 0 to 100, 0 no effect, 100 complete control

In the case of `CCc1cc(-c2ccc(Cl)cc2)nn1-c1c(OS(C)(=O)=O)cnn(C)c1=O` [Compound 39], the “Plant response rating, Rice” value (rice (Oryza sativa); [12]) is reported as 0, the “Plant response rating, Rice” value (rice (Oryza sativa); [13]) is reported as 50 and the “Plant response rating, Rice” value (rice (Oryza sativa); [14]) is reported as 80. For the same compound, the “Plant response rating, Rice” value (rice (Oryza sativa); [15]) was 0, the “Plant response rating, Barnyardgrass” value [1, 12] was 80 and the “Plant response rating, Barnyardgrass” value [1, 13] was 65. The “Plant response rating, Barnyardgrass” value [1, 14] was 85, the “Plant response rating, Barnyardgrass” value [1, 15] was 0 and the “Plant response rating, Sedge, Umbrella” value [2, 12] was 0. The “Plant response rating, Sedge, Umbrella” value [2, 13] was 0, the “Plant response rating, Sedge, Umbrella” value [2, 14] was 85 and the “Plant response rating, Sedge, Umbrella” value [2, 15] was 0. For the same compound, the “Plant response rating, Ducksalad” value [3, 12] was 0, the “Plant response rating, Ducksalad” value [3, 13] was 0 and the “Plant response rating, Ducksalad” value [3, 14] was 80. For the same compound, the “Plant response rating, Ducksalad” value [3, 15] was 0, the “Plant response rating, Sunflower” value ([4]; 16 g ai/ha, scale 0 to 100 (0 no effect, 100 complete control)) was 0 and the “Plant response rating, Sunflower” value ([4]; 31 g ai/ha, 0 to 100 scale, 0 no effect, 100 complete control) was 0. The “Plant response rating, Sunflower” value ([4]; 62 g ai/ha, scale 0 to 100) was 0, the “Sunflower plant response rating” value ([4]; 8 g ai/ha, scale 0 to 100) was 0 and the “Velvetleaf plant response rating” value ([5]; postemergence, 0-100 scale) was 0. For the same compound, the “Plant response rating, Velvetleaf” value [5, 16] was 0, the “Plant response rating, Velvetleaf” value [5, 17] was 0 and the “Plant response rating, Velvetleaf” value [5, 18] was 0. The “Plant response rating, Velvetleaf” value [5, 19] was 0, the “Plant response rating, Velvetleaf” value [5, 20] was 0 and the “Velvetleaf plant response rating” value ([5]; Preemergence, scale 0 to 100) was 0. For the same compound, the “Surinam Grass plant response rating” value ([6]; postemergence, 0-100 scale) was 100, the “Plant response rating, Surinam Grass” value [6, 16] was 100 and the “Plant response rating, Surinam Grass” value [6, 17] was 100. For the same compound, the “Plant response rating, Surinam Grass” value [6, 18] was 95, the “Plant response rating, Surinam Grass” value [6, 19] was 100 and the “Plant response rating, Surinam Grass” value [6, 20] was 100. The “Surinam Grass plant response rating” value ([6]; Preemergence, scale 0 to 100) was 90, the “Morningglory plant response rating” value ([7]; postemergence, 0-100 scale) was 0 and the “Plant response rating, Morningglory” value [7, 16] was 0. For the same compound, the “Plant response rating, Morningglory” value [7, 21] was 0, the “Plant response rating, Morningglory” value [7, 17] was 0 and the “Plant response rating, Morningglory” value [7, 18] was 0. For the same compound, the “Plant response rating, Morningglory” value [7, 19] was 0, the “Plant response rating, Morningglory” value [7, 20] was 0 and the “Morningglory plant response rating” value ([7]; Preemergence, scale 0 to 100) was 0. The “Oat, Wild plant response rating” value (wild oat (Avena fatua); postemergence, 0-100 scale) was 95, the “Plant response rating, Oat, Wild” value (wild oat (Avena fatua); [16]) was 95 and the “Plant response rating, Oat, Wild” value (wild oat (Avena fatua); [21]) was 100. For the same compound, the “Plant response rating, Oat, Wild” value (wild oat (Avena fatua); [17]) was 100, the “Plant response rating, Oat, Wild” value (wild oat (Avena fatua); [18]) was 90 and the “Plant response rating, Oat, Wild” value (wild oat (Avena fatua); [19]) was 90. The “Plant response rating, Oat, Wild” value (wild oat (Avena fatua); [20]) was 95, the “Oat, Wild plant response rating” value (wild oat (Avena fatua); Preemergence, scale 0 to 100) was 70 and the “Foxtail, Green plant response rating” value ([8]; postemergence, 0-100 scale) was 30. For the same compound, the “Plant response rating, Foxtail, Green” value [8, 16] was 80, the “Plant response rating, Foxtail, Green” value [8, 21] was 85 and the “Plant response rating, Foxtail, Green” value [8, 17] was 100. The “Plant response rating, Foxtail, Green” value [8, 18] was 100, the “Plant response rating, Foxtail, Green” value [8, 19] was 100 and the “Plant response rating, Foxtail, Green” value [8, 20] was 100. The “Foxtail, Green plant response rating” value ([8]; Preemergence, scale 0 to 100) was 80, the “Bromegrass, Downy plant response rating” value ([9]; postemergence, 0-100 scale) was 5 and the “Plant response rating, Bromegrass, Downy” value [9, 16] was 10. For the same compound, the “Plant response rating, Bromegrass, Downy” value [9, 21] was 45, the “Plant response rating, Bromegrass, Downy” value [9, 17] was 80 and the “Plant response rating, Bromegrass, Downy” value [9, 18] was 70. For the same compound, the “Plant response rating, Bromegrass, Downy” value [9, 19] was 85, the “Plant response rating, Bromegrass, Downy” value [9, 20] was 85 and the “Bromegrass, Downy plant response rating” value ([9]; Preemergence, scale 0 to 100) was 0. For the same compound, the “Wheat plant response rating” value ([10]; postemergence, 0-100 scale) was 20, the “Plant response rating, Wheat” value [10, 16] was 20 and the “Plant response rating, Wheat” value [10, 17] was 98. For the same compound, the “Plant response rating, Wheat” value [10, 18] was 30, the “Plant response rating, Wheat” value [10, 19] was 70 and the “Plant response rating, Wheat” value [10, 20] was 80. The “Wheat plant response rating” value ([10]; Preemergence, scale 0 to 100) was 0, the “Corn plant response rating” value (corn (Zea mays); postemergence, 0-100 scale) was 0 and the “Plant response rating, Corn” value (corn (Zea mays); [16]) was 85. For the same compound, the “Plant response rating, Corn” value (corn (Zea mays); [21]) was 98, the “Plant response rating, Corn” value (corn (Zea mays); [17]) was 100 and the “Plant response rating, Corn” value (corn (Zea mays); [18]) was 80. For the same compound, the “Plant response rating, Corn” value (corn (Zea mays); [19]) was 98, the “Plant response rating, Corn” value (corn (Zea mays); [20]) was 100 and the “Corn plant response rating” value (corn (Zea mays); Preemergence, scale 0 to 100) was 65. The “Crabgrass, Large plant response rating” value ([11]; postemergence, 0-100 scale) was 70, the “Plant response rating, Crabgrass, Large” value [11, 16] was 90 and the “Plant response rating, Crabgrass, Large” value [11, 21] was 98. The “Plant response rating, Crabgrass, Large” value [11, 17] was 100, the “Plant response rating, Crabgrass, Large” value [11, 18] was 100 and the “Plant response rating, Crabgrass, Large” value [11, 19] was 100. For the same compound, the “Plant response rating, Crabgrass, Large” value [11, 20] was 100 and the “Crabgrass, Large plant response rating” value ([11]; Preemergence, scale 0 to 100) was 60.
